Entries after “also recorded” stand apart in the source; their conditions may differ.
How the values were obtained:
[1] = tested on: alkaline phosphatase; settings: 300 ng/ml, 1000 ng/ml; day 1 and day 21; vs CTL
Procedure: MC3T3-E1 cells were differentiated during 21 days as mentioned previously. […] Treated cells were compared to cells without any peptide stimulation (CTL).
We also assessed the specific alkaline phosphatase activity (μmol de para-nitrophenol/min/mg of protein). To that goal, we lysed the cells using 300 μL of a buffer containing 0.2 M Tris-Base, 1.6 mM MgCl2 pH 8.1 and 1% Triton X-100. Samples were then placed into tubes and put on ice for 30 min. During this time, we alternated periods of 30 sec vortex and 5 min on ice. Then, samples were sonicated, and centrifugated for 15 min at 13 000 g, 4° C. Supernatant was collected, and total protein concentration was evaluated using bicinchoninic acid assay.
Alkaline phosphatase activity was measured by placing the harvested supernatants in para-nitrophenyl phosphate (pNPP) solution. The alkaline phosphatase will cleave this substrate and generate para-nitrophenol (pNP).
A solution of 4 mg/mL of pNPP is prepared in buffer A (0.1 M glycine pH 10.5, 0.11% (m/v) Zinc acetate and 0.011% magnesium chloride (m/v)). […]
Absorbance is read at 410 nm on a Varioskan Flash apparatus. Alkaline phosphatase activity is calculated based on the standard curve (equation A410=a×quantity(ρNP)+b) with the following formula: activity=((A(410 nm)−b)×reaction volume)/(a×sample volume×reaction time)

[2] = tested on: MC3T3-E1 cells; experiment: Quantification of mineralization (Alizarin Red) in MC3T3-E1 cells; assay type: cell-based, mouse; settings: PEP12 at 300 and 1000 ng/ml; 21 days; absorbance 405 nm
Procedure: Each time point was processed in three technical replicates. The medium was changed every two days.
Cells were washed with PBS and fixed with 95% ice-cold ethanol for 30 min at 4° C. for staining. After washing with distilled water, cells were stained with Alizarin Red staining (1% Alizarin Red S (Sigma)), washed three times with distilled water to remove unbound staining and air-dried. Quantification of the staining was performed by dissolving the mineral content in 800 μl of 10% acetic acid for 30 minutes. Then, the wells were scraped, the content of each well was harvested in a separate tube and vortexed for 30 seconds. Each tube was heated at 85° C. for 10 minutes, then put on ice for 5 minutes. Finally, tubes were centriguated at 13000 rpm for 15 minutes, the liquid phase was harvested and mixed with 100 μl of 10% ammonium hydroxide. Absorbance was measured at 405 nm with a spectrophotometer (Varioskan Flash, Thermo Fisher Scientific).
The mineralization level was evaluated by a biochemical assay as previously described after 21 days of differentiation culture. Results are representative of 3 experiments.

[3] = tested on: ATDC5 micromasses; experiment: Glycosaminoglycan/proteoglycan quantification (Alcian blue staining) in ATDC5 micromasses; assay type: cell-based, mouse; settings: for proteoglycans deposition in the extracellular matrix (Alcian blue, absorbance 650 nm): 300 ng/ml, 14 days, vs control cells
Procedure: (§1) Mouse chondrogenic ATDC5 cells (cartilage-specific chondrogenic strain) were cultured until confluent in maintenance medium containing 1:1 Dulbecco's modified Eagle's medium (DMEM): Ham's F-12 mix (Gibco) supplemented with 1% antibiotic (AB, Penicillin-Streptomycin, Gibco), 5% fetal bovine serum (FBS) (Gibco) and enriched with […] human transferrin (Sigma) and 30 nM sodium selenite (Sigma). Cells were trypsinized, washed and resuspended at 2.10^7 cells/mL in a chondrogenic medium made of maintenance medium enriched by 1× of ITS premix (resulting in 10 μg/mL insulin, 10 μg/mL human transferrin and 30 nM sodium selenite) (Life technologies). One droplet of cell suspension (10 μL) was placed at the center of each well of a 24-well plate. Cells were allowed to adhere for 2 h at 37° C., followed by addition of 500 μL chondrogenic medium supplemented. […] After 14 days, induction of hypertrophic differentiation and mineralization was induced by the mineralization medium made of α-MEM medium (Gibco) containing 1% AB, 5% FBS, 5 μg/ml human transferrin, 1× of ITS premix, 50 μg/ml ascorbic acid-2-phosphate (AA) (Sigma) and 10 mM β-glycerophosphate (BGP) (Sigma). […] Micromasses were collected at time points 1, 7, 14 21 and 28 days. Each time point was processed in three technical replicates. The medium was changed every other day. […] The genes of interest were articular chondrocyte markers (aggrecan, type 2 collagen (col2a1)), YAP/TAZ target genes (ctgf, ankrd) and pro-catabolic enzymes involved in the pathophysiology of OA (mmp3, mmp13).
Micromasses were washed with PBS and fixed with 95% ice-cold ethanol for 30 min at 4° C. for staining. After washing with distilled water, micromasses were stained with Alcian Blue (0.1% Alcian Blue 8GX, (Sigma)), washed three times with distilled water to remove unbound staining and air-dried.

[4] = tested on: Wnt/β-catenin pathway; experiment: Western blot of Wnt/β-catenin pathway activation in ATDC5 micromasses; assay type: cell-based, mouse; settings: 300 ng/mL; day 21 and 28
Procedure: (§2) Mouse chondrogenic ATDC5 cells (cartilage-specific chondrogenic strain) were cultured until confluent in maintenance medium containing 1:1 Dulbecco's modified Eagle's medium (DMEM): Ham's F-12 mix (Gibco) supplemented with 1% antibiotic (AB, Penicillin-Streptomycin, Gibco), 5% fetal bovine serum (FBS) (Gibco) and enriched with […] human transferrin (Sigma) and 30 nM sodium selenite (Sigma). Cells were trypsinized, washed and resuspended at 2.10^7 cells/mL in a chondrogenic medium made of maintenance medium enriched by 1× of ITS premix (resulting in 10 μg/mL insulin, 10 μg/mL human transferrin and 30 nM sodium selenite) (Life technologies). One droplet of cell suspension (10 μL) was placed at the center of each well of a 24-well plate. Cells were allowed to adhere for 2 h at 37° C., followed by addition of 500 μL chondrogenic medium supplemented. […] After 14 days, induction of hypertrophic differentiation and mineralization was induced by the mineralization medium made of α-MEM medium (Gibco) containing 1% AB, 5% FBS, 5 μg/ml human transferrin, 1× of ITS premix, 50 μg/ml ascorbic acid-2-phosphate (AA) (Sigma) and 10 mM β-glycerophosphate (BGP) (Sigma). […] Micromasses were collected at time points 1, 7, 14 21 and 28 days. Each time point was processed in three technical replicates. The medium was changed every other day. […]

[5] = tested on: 7×TCF/LEF response elements (Super 8×TOPFlash reporter); experiment: Promoter activation assay, Super 8×TOPFlash luciferase reporter in ATDC5 cells stimulated with Wnt3a; assay type: cell-based, mouse; settings: peptide at 300 ng/ml; 10 or 100 ng/mL recombinant Wnt3a; 24 h
Procedure: Results were normalized by-cotransfecting each of the above plasmid with the tyrosine kinase-renilla luciferase plasmid (Promega). Transfections were carried out using the Dharmafect kb transfection reagent (Fisher Scientific). Briefly, reporter plasmids and transfection reagent were diluted in serum-free medium, and then the diluted Dharmafect kb was added to the plasmids for an incubation time of 10 minutes at room temperature. During that time, cells were rinsed with PBS and were placed in fresh maintenance medium. When incubation was over, the mixture of transfection reagent-plasmids was dispensed in each well. Stimulations (with Wnt3a and/or PEP16 and/or PEP16bis) were carried out the next day.

[6] = tested on: CamKII pathway; experiment: Western blot of CamKII pathway activation in ATDC5 micromasses; assay type: cell-based, mouse; settings: 300 ng/mL; day 21 and 28
Procedure: as §2

[7] = tested on: ATDC5 micromasses; experiment: qRT-PCR relative expression of genes of interest in ATDC5 micromass culture (chondrogenesis); assay type: cell-based, mouse; settings: for MMP3 expression / YAP/TAZ target genes (CTGF) expression / articular chondrocyte extracellular matrix genes (type II collagen and aggrecan) expression: 300 ng/ml, differentiated 14 days with ITS, D14 vs CTL
Procedure: as §1
(§3) Total RNA was isolated using the Nucleospin RNA II kit (Macherey-Nagel) and reverse-transcribed using the MMLV reverse transcriptase (Thermo Fisher Scientific) following the manufacturers' instructions. The iTaq SYBR green qPCR master mix (BioRad) was used to assess the mRNA expression of target genes of interest. Primer sequences can be provided upon request. The following PCR conditions were used: 1 minute at 95° C., 40 cycles of 15 sec of denaturation at 95° C., followed by 1 minute of annealing-elongation at 60° C. Melting curve analysis was performed to determine the amplification of the specific product. Results were expressed using the comparative threshold method and were normalized to housekeeping gene PPIA (Peptidylprolyl Isomerase A) mRNA level for ATDC5 cells and MACs, or normalized to housekeeping gene S29 (ribosomal protein S29) mRNA level for MC3T3-E1 cells. The Via7 real-time PCR system (Thermo Fisher Scientific) was used for qRT-PCR measurements.
(§4) ATDC5 cells were cultured as micromasses and differentiated during 14 days using ITS as mentioned previously. […] RNA was isolated and qPCR were performed for different target genes, i.e. type II collagen and aggrecan (articular chondrocyte extracellular matrix), CTGF (YAP/TAZ target genes, indicators of the pathway activity) and MMP3 (cartilage degrading enzyme increased during osteoarthritis) (FIG. 15). Alcian blue staining was performed on the micromasses cultures, and biochemical quantitation was performed as previously described (FIG. 16).
as §4, with “gene, indicator” for “genes, indicators”, “17).” for “15).”, “18).” for “16).”

[8] = tested on: mouse articular chondrocytes; experiment: qRT-PCR relative expression of genes of interest in mouse articular chondrocytes; assay type: cell-based; settings: 300 ng/mL; 12 h of stimulation
Procedure: Mouse articular chondrocyte (MACs) were isolated from femoral heads by enzymatic digestion of whole femoral head caps. Samples were washed three times in 1% AB/phosphate buffered saline (PBS) and incubated with 2 mg/ml pronase (Roche)/DMEM-F12 at 37° C. for 1 h at slow rotation 100 rpm followed by a 3 h incubation with 1.5 mg/ml collagenase B (Roche)/DMEM-F12 at 37° C. Cells were seeded at 1×10^6 cells/[…], and cultured for 7 to 14 days in growth medium DMEM-F12, containing 1% AB (Gibco), 10% FBS (Gibco) and 5% L-glutamine (Thermoscientific). Passage 1 cells were utilized for the experiments. The culture supernatants were then harvested in order to perform MMP13 enzymatic activity assay. The evaluation of the expression of genes of interest included articular chondrocyte markers (aggrecan, type 2 collagen (col2a1)), YAP/TAZ target genes (ankrd) and pro-catabolic enzyme involved in the pathophysiology of OA (mmp3).
as §3

[9] = tested on: mouse model of OA; settings: mouse model of OA (Zhang et al., 2020); cited from earlier work
[10] = 300 ng/mL, day 1, 21, 28, vs non-treated control

## ATQKTYFRNNYN (PEP12)
[1]
  specific alkaline phosphatase activity: not able to increase the alkaline phosphatase activity
[2]
  extracellular matrix mineralization (biochemical quantitation): not able to increase extracellular matrix mineralization

## DRAGKKVKRWDMKARH (PEP16bis) [mutant of PEP16, L in position 3 and 14 changed to A]
[3]; 300 ng/mL, Alcian blue at day 28, absorbance 650 nm
  glycosaminoglycans quantification (accumulation in the extracellular matrix): significantly increased the accumulation of glycosaminoglycans
[4]
  Wnt/β-catenin pathway activation (active protein form over total protein form): reduced in the activation of the Wnt/β-catenin pathway
[5]
  activity of the canonical Wnt pathway in the Super TOPFlash luciferase reporter system (Firefly/renilla ratio): very similar properties (biological activity) to the initial sequence PEP16; also recorded: significantly reduce the activity
[6]
  CamKII pathway activation (P-CamKII over total): increased the activation of the CamKII pathway
[7]; [10]
  expression of Ctgf, a target gene of the Hippo/YAP/TAZ pathway: efficiently reduced the expression
  relative expression level of aggrecan: favoured the induction of the expression
  relative expression level of col2a1 (type 2 collagen): favoured the induction of the expression
  relative expression level of mmp3: efficiently reduced the expression
  relative expression level of mmp13: efficiently reduced the expression
[8]
  expression of Ankrd, a target gene of the Hippo/YAP/TAZ pathway: capable of reducing the expression

## DRIGKKVKRWDMKIRH (PEP i) [PEP16 where L in position 3 and 14 were changed to an Isoleucine]
[3]
  proteoglycans deposition in the extracellular matrix (Alcian blue, absorbance 650 nm): significantly increase the proteoglycans deposition
[7]
  MMP3 expression: significant decrease
  YAP/TAZ target genes (CTGF) expression: significant decrease
  articular chondrocyte extracellular matrix genes (type II collagen and aggrecan) expression: significant increase

## DRSGKKVKRWDMKSRH (PEP s) [PEP16 where L in position 3 and 14 were changed to a Serine]
[3]
  proteoglycans deposition in the extracellular matrix (Alcian blue, absorbance 650 nm): significantly increase the proteoglycans deposition
[7]
  MMP3 expression: significant decrease
  YAP/TAZ target genes (CTGF) expression: significant decrease
  articular chondrocyte extracellular matrix genes (type II collagen and aggrecan) expression: significant increase

## Verteporfin
[9]
  cartilage homeostasis: allowed preserving the cartilage homeostasis
